Reference: PubChem BioAssay (NCI)
Several values for one entry are separate records, joined by “and”; a condition that tells them apart may be missing. Equal values may be shown once.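 Values below derive from 48-hour exposures of cells grown in 96-well plates, with endpoints linearly interpolated between the two concentrations bracketing the appropriate inhibition level. Abbreviation: GI50, concentration required for 50% inhibition of growth. TGI: concentration producing complete growth inhibition.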

How the values were obtained:
Test in all cases: DTP human tumour cell line panel, 48 h
NCI-H522 lung = system: NCI-H522 lung
MDA-MB-231 breast = system: MDA-MB-231 breast
U251 CNS = system: U251 CNS
T-47D breast = system: T-47D breast
HCC-2998 colon = system: HCC-2998 colon
SNB-75 CNS = system: SNB-75 CNS
OVCAR-3 ovarian = system: OVCAR-3 ovarian
SF-295 CNS = system: SF-295 CNS
OVCAR-5 ovarian = system: OVCAR-5 ovarian
TK-10 renal = system: TK-10 renal

Row | Structure (SMILES) | GI50 (NCI-H522 lung) | TGI (NCI-H522 lung) | GI50 (MDA-MB-231 breast) | TGI (MDA-MB-231 breast) | GI50 (U251 CNS) | TGI (U251 CNS) | GI50 (T-47D breast) | TGI (T-47D breast) | GI50 (HCC-2998 colon) | TGI (HCC-2998 colon) | GI50 (SNB-75 CNS) | TGI (SNB-75 CNS) | GI50 (OVCAR-3 ovarian) | TGI (OVCAR-3 ovarian) | GI50 (SF-295 CNS) | TGI (SF-295 CNS) | GI50 (OVCAR-5 ovarian) | TGI (OVCAR-5 ovarian) | GI50 (TK-10 renal) | TGI (TK-10 renal)
1 | CN1CCN(c2ccc(-c3cnc4c(-c5csc6ccccc56)cnn4c3)cc2)CC1 | 8.15 µM | > 15 µM | 4.88 µM | 14.7 µM | 4.38 µM | > 15 µM | > 15 µM | > 15 µM | 6 µM | > 15 µM | > 15 µM | > 15 µM | 3.02 µM | 6.59 µM | > 15 µM | > 15 µM | > 15 µM | > 15 µM | 8.37 µM | > 15 µM
2 | NC(=O)c1[nH]nc(C2OC(CO)C(O)C2O)c1O (centres undefined) | – | 1050 µM | – | 670 µM | – | 4010 µM | – | > 2990 µM | – | 378 µM | – | 840 µM | – | 424 µM | – | 848 µM | – | 2830 µM | – | 2320 µM
3 | O=C1C=CC(=O)C1(Br)Br | – | 14.4 µM | – | 23.1 µM | – | 29.1 µM | – | 51.6 µM | – | 31.2 µM | – | 24.5 µM | – | 31.4 µM | – | 34.1 µM | – | 25.3 µM | – | 10.4 µM
4 | Cc1cc(S(=O)(=O)Nc2nc3ccsc3c(=O)n2Cc2ccco2)c(S)cc1Cl | > 100 µM | > 100 µM | > 100 µM | > 100 µM | 96.3 µM | > 100 µM | > 100 µM | > 100 µM | > 100 µM | > 100 µM | > 100 µM | > 100 µM | > 100 µM | > 100 µM | 62.8 µM | > 100 µM | > 100 µM | > 100 µM | > 100 µM | > 100 µM
5 | O=C1C(Cl)=C(Nc2ccc3cn[nH]c3c2)C(=O)c2ccccc21 | 1.55 µM | 2.94 µM | 1.41 µM | 2.73 µM | 1.31 µM | 2.58 µM | 1.24 µM | 3.27 µM | 2.02 µM | 3.99 µM | 1.67 µM | 3.03 µM | 1.08 µM | 2.27 µM | 1.67 µM | 4.14 µM | 1.8 µM | 3.21 µM | 3.79 µM | 8.06 µM
6 | COc1cc(-c2oc3c(OC)c(OC)cc(O)c3c(=O)c2OC)ccc1O | – | 31.3 µM and > 50 µM | – | > 50 µM | 5.97 µM and 12.7 µM | > 100 µM | – | 34.4 µM | > 100 µM and 31 µM | > 100 µM | 1.7 µM and > 5 µM | 8.54 µM and > 5 µM | – | > 50 µM | 3.24 µM and 8.34 µM | > 100 µM and 38.1 µM | – | > 50 µM | – | 22.8 µM and 40.2 µM
7 | CC(CN)[C@@H]1CC[C@]2(CO)CC[C@]3(C)[C@H](CC[C@@H]4[C@@]5(C)CCC(NCCO)C(C)(C)[C@@H]5CC[C@]43C)[C@@H]12 (some centres undefined) | 1.67 µM | 3.27 µM | 1.38 µM | 2.86 µM | 1.6 µM | 2.95 µM | 2.01 µM | 4.58 µM | 1.89 µM | 3.57 µM | 1.3 µM | 3.12 µM | 2.1 µM | 4.6 µM | 1.74 µM | 3.4 µM | 2.11 µM | 5 µM | 1.81 µM | 3.88 µM
